Measured values taken from patent publication US20260365618A1 (priority 2022, published 2026).
Where “and” joins values, the source holds several entries; their conditions need not be identical. Equal values may be shown once. Entries after “also recorded” stand apart in the source; their conditions may differ. Read-outs that look alike come from different tables or passages of the source.

What was measured:
[1] = tested on: F. tularensis subsp. novicida; format: cell-based, Francisella tularensis subsp. novicida
[2] = tested on: F. tularensis subsp. tularensis; test: microbe, parasite or virus in culture; format: cell-based, Francisella tularensis subsp. tularensis
[3] = tested on: F. tularensis subsp. tularensis strain SchuS4; format: in vivo, mice
[4] = tested on: F. tularensis subsp. tularensis strain SchuS4; design: species or system mice; settings: mouse
[5] = tested on: F. tularensis subsp. holarctica; test: microbe, parasite or virus in culture; format: cell-based, Francisella tularensis subsp. holarctica
[6] = tested on: F. tularensis, total; format: cell-based, Francisella tularensis

CC[C@H]1OC(=O)[C@H](C)[C@@H](O[C@H]2C[C@@](C)(OC)[C@@H](O)[C@H](C)O2)[C@H](C)[C@@H](O[C@@H]2O[C@H](C)C[C@H](N(C)C)[C@H]2O)[C@](C)(O)C[C@@H](C)C(=O)[C@H](C)[C@@H](O)[C@]1(C)O [Erythromycin]
activity (in words) ([1]; subsp. novicida): inactive
MIC ([1]; subsp. novicida, N=1, CAMHB + 2% Isovitalex, 35 °C, 48 h): ≥8 µg/mL
in vitro activity (in words) [2]: slightly weaker activity

C=C[C@]1(C)C[C@@H](OC(=O)CS[C@@H]2CC[C@@H](N)C[C@H]2O)[C@]2(C)[C@H](C)CC[C@]3(CCC(=O)[C@H]32)[C@@H](C)[C@@H]1O [Lefamulin, 14-O-{[(1R, 2R, 4R)-4-amino-2-hydroxy-cyclohexylsulfanyl]-acetyl}-mutilin]
activity (in words) [1]: Potent activity
bacterial load in spleen ([3]; animals surviving until day 45 (ciprofloxacin: average of two; Lefamulin: one), spleen): 7.7×10^6 CFU/g
bacterial load in lung ([3]; one remaining Lefamulin-treated animal, day 45, lung): 1.3×10^6 CFU/g
efficacy in the murine in vivo model (in words) [4]: comparable efficacy
animals surviving until day 45 ([4]; in vivo): one
effect of oral treatment on survival (in words) ([4]; in vivo): effective in prolonging the survival
mortality 5 days after the last treatment ([4]; in vivo): ~100%
survival by the end of treatment (Day 15) ([4]; in vivo): 100% and 90%
activity / MIC values compared with subsp. tularensis (in words) [5]: slightly higher
antimicrobial activity against F. tularensis (in words) [6]: active in vitro and in vivo; also recorded: potent inhibition
in vitro activity (in words) [6]: potent in vitro activity
in vitro activity (in words) [2]: surprisingly potent activity
MIC ([2]; Francisella tularensis, read-out: concentration at which all subsp. tularensis isolates were inhibited): ≤ 4 µg/mL
